Reference: patent US20070134261A1, “Effectors of innate immunity” (priority 2001, published 2007)
Residues, ends and D or L forms follow the SMILES beside them.

Tested on: A549 human epithelial cell line
Test: Polynucleotide array (Human Operon) of A549 cells incubated with E. coli O111:B4 LPS with or without peptide
Assay type: cell-based
Conditions: 50 μg/ml, 4 h
Procedure: The A549 human epithelial cell line was maintained in DMEM (Gibco) supplemented with 10% fetal bovine serum (FBS, Medicorp). […] Total RNA was isolated using RNAqueous (Ambion, Austin, Tex.). […] DNA contamination was removed with DNA-free kit, Ambion).
A “homemade” program was used to remove background. The program calculates the bottom 10% intensity for each subgrid and subtracts this for each grid.
Peptide (50 μg/ml) and LPS (0.1 μg/ml) or LPS alone was incubated with the A549 cells for 4 h and the RNA was isolated. Five μg total RNA was used to make Cy3/Cy5 labeled cDNA probes and hybridized onto Human Operon arrays (PRHU04). The intensity of unstimulated cells is shown in the third column of Table 1. The “Ratio: LPS/control” column refers to the intensity of polynucleotide expression in LPS simulated cells divided by in the intensity of unstimulated cells. The “Ratio: LPS+ID 27/control” column refers to the intensity of polynucleotide expression in cells stimulated with LPS and peptide divided by unstimulated cells.
Peptide and LPS or LPS alone was incubated with the A549 cells for 4 h and the RNA was isolated. 5 μg total RNA was used to make Cy3/Cy5 labeled cDNA probes and hybridized onto Human Operon arrays (PRHU04). The intensity of unstimulated cells is shown in the third column of Table 2. The “Ratio: LPS/control” column refers to the intensity of polynucleotide expression in LPS-simulated cells divided by in the intensity of unstimulated cells. The other columns refer to the intensity of polynucleotide expression in cells stimulated with LPS and peptide divided by unstimulated cells.

[1] = AB007856 FEM-1-like death receptor binding protein

CSCC[C@H](NC(=O)[C@H](CO)NC(=O)[C@@H](NC(=O)[C@H](CCCCN)NC(=O)[C@H](Cc1ccccc1)NC(=O)[C@H](CS)NC(=O)[C@H](CO)NC(=O)[C@H](CCCNC(=N)N)NC(=O)[C@@H](N)CCCCN)C(C)C)C(=O)N[C@@H](CCCNC(=N)N)C(=O)NCC(=O)N[C@H](C(=O)N[C@@H](CO)C(=O)N[C@@H](CCCNC(=N)N)C(=O)N[C@@H](CCCNC(=N)N)C(=O)N[C@@H](CCCNC(=N)N)C(=O)N[C@@H](CS)C(=O)N[C@@H](CCCCN)C(=O)O)C(C)C [SEQ ID NO: 27] (H-KRSCFKVSMRGVSRRRCK-OH; N-terminus and C-terminus assumed)
Ratio: LPS + ID 27/control (AB007854 growth arrest-specific 7): 2.2 | Ratio: LPS + ID 27/control [1]: 0.6 | Ratio: LPS + ID/Ctrl [1]: 0.62 | Ratio: LPS + ID/Ctrl (AB007896 putative L-type neutral amino acid transporter): 1.82 | Ratio: LPS + ID/Ctrl (AB010894 BAI1-associated protein): 1.38 | Ratio: LPS + ID 27/control (AB014569 KIAA0669 gene product): 0.2 | Ratio: LPS + ID/Ctrl (AB023198 KIAA0981 protein): 0.43 | Ratio: LPS + ID/Ctrl (AB037722 Unknown): 0.30 | Ratio: LPS + ID 27/control (AB040057 serine/threonine protein kinase MASK): 15.8 | Ratio: LPS + ID/Ctrl (AC004849 Unknown): 0.07 | Ratio: LPS + ID 27/control (AF035309 proteasome 26S subunit ATPase 5): 1.3 | Ratio: LPS + ID/Ctrl (AF095687 brain and nasopharyngeal carcinoma susceptibility protein): 0.48 | Ratio: LPS + ID 27/control (AF112219 esterase D/formylglutathione hydrolase): 1.1 | Ratio: LPS + ID 27/control (AF131838 Unknown): 1.4 | Ratio: LPS + ID 27/control (AF151047 hypothetical protein): 1.0 | Ratio: LPS + ID 27/control (AF189009 ubiquilin 2): 1.3 | Ratio: LPS + ID 27/control (AJ001403 mucin 5 subtype B tracheobronchial): 15.9 | Ratio: LPS + ID 27/control (AK000087 hypothetical protein): 1.0 | Ratio: LPS + ID 27/control (AK000264 Unknown): 0.6 | Ratio: LPS + ID/Ctrl (AK000353 cytosolic ovarian carcinoma ag 1): 1.02 | Ratio: LPS + ID 27/control (AK000353 cytosolic ovarian carcinoma antigen 1): 1.0 | Ratio: LPS + ID 27/control (AK000366 hypothetical protein): 1.0 | Ratio: LPS + ID 27/control (AK000562 hypothetical protein): 0.6 | Ratio: LPS + ID 27/control (AK000869 hypothetical protein): 2.3 | Ratio: LPS + ID/Ctrl (AK000869 hypothetical protein): 2.34 | Ratio: LPS + ID/Ctrl (AK001239 hypothetical protein): 1.27 | Ratio: LPS + ID/Ctrl (AK001440 hypothetical protein): 0.43 | Ratio: LPS + ID 27/control (AK001569 hypothetical protein): 1.2 | Ratio: LPS + ID 27/control (AK001589 hypothetical protein): 1.3 | Ratio: LPS + ID/Ctrl (AK001589 hypothetical protein): 1.26 | Ratio: LPS + ID/Ctrl (AK001904 hypothetical protein): 5.93 | Ratio: LPS + ID 27/control (AL031983 Unknown): 5.1 | Ratio: LPS + ID/Ctrl (AL031983 Unknown): 5.06 | Ratio: LPS + ID 27/control (AL050337 interferon gamma receptor 1): 1.0 | Ratio: LPS + ID 27/control (AL050348 Unknown): 1.7 | Ratio: LPS + ID 27/control (AL096739 Unknown): 0.5 | Ratio: LPS + ID/Ctrl (AL122111 hypothetical protein): 0.21 | Ratio: LPS + ID 27/control (AL137376 Unknown): 0.6 | Ratio: LPS + ID/Ctrl (AL137376 Unknown): 0.64 | Ratio: LPS + ID 27/control (AL137614 hypothetical protein): 1.0 | Ratio: LPS + ID 27/control (D14043 CD164 antigen_sialomucin): 1.0 | Ratio: LPS + ID 27/control (D14539 myeloid/lymphoid or mixed-lineage leukemia translocated to 1): 3.1 | Ratio: LPS + ID 27/control (D42085 KIAA0095 gene product): 1.2 | Ratio: LPS + ID 27/control (D87451 ring finger protein 10): 2.1 | Ratio: LPS + ID/Ctrl (D87451 ring finger protein): 2.1 | Ratio: LPS + ID 27/control (J03925 integrin_alpha M): 4.2 | Ratio: LPS + ID 27/control (J04058 electron-transfer-flavoprotein alpha polypeptide): 1.2 | Ratio: LPS + ID 27/control (J04513 fibroblast growth factor 2): 0.9 | Ratio: LPS + ID/Ctrl (J05068 transcobalamin 1): 1.78 | Ratio: LPS + ID 27/control (K02581 thymidine kinase 1 soluble): 3.5 | Ratio: LPS + ID 27/control (L04510 ADP-ribosylation factor): 1.4 | Ratio: LPS + ID/Ctrl (L04510 ADP-ribosylation factor): 1.4 | Ratio: LPS + ID/Ctrl (L19185 thioredoxin-dependent peroxide reductase 1): 0.18 | Ratio: LPS + ID 27/control (L25931 lamin B receptor): 0.7 | Ratio: LPS + ID 27/control (L42243 interferon receptor 2): 5.2 | Ratio: LPS + ID 27/control (M23379 RAS p21 protein activator): 2.8 | Ratio: LPS + ID 27/control (M32315 tumor necrosis factor receptor superfamily member 1B): 0.4 | Ratio: LPS + ID 27/control (M54915 pim-1 oncogene): 0.6 | Ratio: LPS + ID/Ctrl (M54915 pim-1 oncogene): 0.63 | Ratio: LPS + ID 27/control (M57230 interleukin 6 signal transducer): 1.0 | Ratio: LPS + ID/Ctrl (M95678 phospholipase C beta 2): 2.38 | Ratio: LPS + ID/Ctrl (NM_001148 ankyrin 2_neuronal): 0.82 | Ratio: LPS + ID 27/control (NM_001663 ADP-ribosylation factor 6): 1.7 | Ratio: LPS + ID 27/control (NM_001940 dentatorubral-pallidoluysian atrophy): 1.2 | Ratio: LPS + ID 27/control (NM_002309 leukemia inhibitory factor): 1.9 | Ratio: LPS + ID 27/control (NM_004862 LPS-induced TNF-alpha factor): 1.1 | Ratio: LPS + ID 27/control (NM_006092 caspase recruitment domain 4): 0.5 | Ratio: LPS + ID 27/control (NM_006325 RAN member RAS oncogene family): 1.4 | Ratio: LPS + ID 27/control (NM_013241 FH1/FH2 domain-containing protein): 0.6 | Ratio: LPS + ID 27/control (NM_013400 replication initiation region protein): 2.0 | Ratio: LPS + ID 27/control (NM_016216 RNA lariat debranching enzyme): 10.9 | Ratio: LPS + ID 27/control (NM_016237 anaphase-promoting complex subunit 5): 0.9 | Ratio: LPS + ID/Ctrl (NM_016382 NK cell activation inducing ligand NAIL): 0.81 | Ratio: LPS + ID 27/control (U19796 melanoma-associated antigen): 0.6 | Ratio: LPS + ID 27/control (U26648 syntaxin 5A): 1.4 | Ratio: LPS + ID 27/control (U34252 aldehyde dehydrogenase 9): 1.2 | Ratio: LPS + ID 27/control (U43083 guanine cription factor 1): 1.6 | Ratio: LPS + ID/Ctrl (U52522 partner of RAC1): 1.35 | Ratio: LPS + ID 27/control (U52960 SRB7 homolog): 0.8 | Ratio: LPS + ID 27/control (U60205 sterol-C4-methyl oxidase-like): 0.8 | Ratio: LPS + ID 27/control (U78027 galactosidase_alpha): 1.1 | Ratio: LPS + ID/Ctrl (U78166 Ric like): 0.20 | Ratio: LPS + ID 27/control (U78166 Ric-like expressed in neurons): 0.2 | Ratio: LPS + ID 27/control (U91316 cytosolic acyl coenzyme A thioester hydrolase): 1.4 | Ratio: LPS + ID 27/control (U94831 transmembrane 9 superfamily member 1): 1.5 | Ratio: LPS + ID/Ctrl (X03066 MHC class II DO beta): 4.90 | Ratio: LPS + ID/Ctrl (X06614 retinoic acid receptor_alpha): 0.77 | Ratio: LPS + ID/Ctrl (X07173 inter-alpha inhibitor H2): 0.44 | Ratio: LPS + ID 27/control (X13334 CD14 antigen): 1.1 | Ratio: LPS + ID/Ctrl (X16940 smooth muscle enteric actin γ2): 3.24 | Ratio: LPS + ID 27/control (X51688 cyclin A2): 1.0 | Ratio: LPS + ID 27/control (X56777 zona pellucida glycoprotein 3A): 1.4 | Ratio: LPS + ID 27/control (X70394 zinc finger protein 146): 1.7 | Ratio: LPS + ID 27/control (X76104 death-associated protein kinase 1): 1.8 | Ratio: LPS + ID 27/control (X76785 integration site for Epstein-Barr virus): 1.9 | Ratio: LPS + ID 27/control (X80692 mitogen-activated protein kinase 6): 1.3 | Ratio: LPS + ID 27/control (X85750 monocyte to macrophage differentiation-associated): 1.1 | Ratio: LPS + ID 27/control (X92896 Unknown): 1.5 | Ratio: LPS + ID 27/control (X92972 protein phosphatase 6 catalytic subunit): 1.1 | Ratio: LPS + ID 27/control (Z99756 Unknown): 14.0
